Source: patent publication US20250064762A1, “A SUBSTITUTED AROMATIC DICARBONIC ACID AMIDE AS AN INHIBITOR OF THE FERROPTOSIS SUPPRESSOR PROTEIN-1 (FSP1)” (JULIUS-MAXIMILIANS-UNIVERSITÄT WÜRZBURG, priority 2021, published 2025)

Columns and labels:
[1] = tested on: HT1080 cells; assay: FIN56-induced cell death with or without DGAT1/2 inhibitors; assay type: cell-based, human; conditions: CPBA versus CPBA+iDGAT1/2
Protocol: (§1) Cells were seeded onto 96-well plates (5,000 cells per well), and treated with serial dilutions of ferroptosis-inducing compounds (erastin, BSO, RSL3, FIN56) or cytotoxic drugs (staurosporine, nocodazole, tunicamycin, paclitaxel, etoposide, menadione, rotenone, FCCP, carboplatin) in the absence or presence of CPBA or iFSP1 (100 μM or 10 μM, respectively; unless stated otherwise) or the DMSO solvent control. Ferroptotic cell death was evaluated by incubating in the absence or presence of liproxstatin-1 (100 nM), ferrostatin-1 (200 nM), or deferoxamine (100 μM). Cell viability was assessed after 16 h using AquaBluer as an indicator of viable cells according to the manufacturer's recommendations (MultiTarget Pharmaceuticals, LLC). Fluorescence (excitation, 540 nm; emission, 590 nm) was analyzed on a Clariostar microplater reader.
(§2) The diglyceride acyltransferase isoforms 1 and 2 (DGAT1, DGAT2) are required to catalyze the formation of triglycerides from diacylglycerol and acyl-CoA.

[2] = biological target: T1, human FSP1 (Homo sapiens, UniProt Q9BRQ8); assay: In vitro FSP1 oxidoreductase (NADH consumption) assay, human FSP1; assay type: biochemical; conditions: resazurine or coQ1 as electron acceptor
T1 construct: His6 (N, cleaved yes); made in house; host or cells: Escherichia coli BL21 pG-Tf2
T1 sequence (Q9BRQ8 1-373): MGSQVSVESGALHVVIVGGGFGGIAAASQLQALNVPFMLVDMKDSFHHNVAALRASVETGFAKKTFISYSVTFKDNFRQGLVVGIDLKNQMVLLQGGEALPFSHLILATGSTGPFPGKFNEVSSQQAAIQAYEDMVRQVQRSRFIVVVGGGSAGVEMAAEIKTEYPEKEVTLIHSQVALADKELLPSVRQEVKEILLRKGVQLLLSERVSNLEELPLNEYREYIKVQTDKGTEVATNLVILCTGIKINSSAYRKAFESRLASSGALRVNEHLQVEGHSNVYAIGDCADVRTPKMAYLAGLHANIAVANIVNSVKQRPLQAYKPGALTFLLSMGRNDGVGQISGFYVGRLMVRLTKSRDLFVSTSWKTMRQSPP
Protocol: FSP1 activity assays were performed using recombinant, purified murine or human FSP1, NADH, and resazurine or coenzyme-Q1 (coQ1) as electron acceptor molecules. The following conditions were used: 200 μM resazurine were reduced with 750 nM mFSP1 or 150 nM hFSP1; 100 μM coQ1 was reduced with 400 nM mFSP1; and 137 μM coQ1 were reduced with 200 nM hFSP1. The consumption of NADH (500 μM) was measured at 340 nm in phosphate-buffered saline (80 mM Na3PO4, 300 mM NaCl; pH 7.0) at room temperature on a CLARIOstar microplate reader (BMG Labtech). Initial rates were determined, and data were fitted by linear regression using GraphPad Prism software, version 9.1.2.
In order to determine inhibition of FSP1 by CPBA, FSP1 activity was measured […] either CPBA or iFSP1 as a positive control. In vitro FSP1 oxidoreductase activity assays were performed using recombinant, purified murine or human FSP1, NADH, and resazurine or coenzyme-Q1 (coQ1) as electron acceptor molecules as described above (see FIG. 19).
In vitro FSP1 activity assays with human (see FIG. 22 C) or murine (see FIG. 22 D) FSP1 were performed as described above. Shown are NADH consumption assays using recombinant, purified human or mouse FSP1 (hFSP1, mFSP1) and resazurine or coenzyme-Q1 (CoQ1) as electron acceptor molecules.

[3] = tested on: HT1080 cells; assay: Lipid droplet staining with BODIPY 493/503; assay type: cell-based, human; conditions: CPBA 100 μM; T863 10 μM and PF-06424439 5 μM; 16 h
Protocol: HT1080 cells were seeded on glass coverslips (15,000 cells per well of 12-well plate) in complete DMEM, and incubated for 16 h with 100 μM CPBA or with 0.1% of the DMSO solvent control, in the absence or presence of inhibitors of DGAT1 and DGAT2 (10 μM T863/iDGAT1; 5 μM PF-06424439/iDGAT2). Cells were fixed with 4% para-formaldehyde, lipid droplets were stained with the neutral lipid droplet stain BODIPY 493/503 (2 μM, 30 min), and nuclei were counterstained with 4′,6-diamidino-2-phenylindole (DAPI). Cells were mounted with Immu-Mount (Fisher Scientific), and imaged by fluorescence microscopy on a THUNDER imager (THUNDER Imager Live Cell & 3D Cell Culture & 3D Assay system, Leica DMI8; Leica Microsystems), using a 63× objective.
We next investigated the impact of CPBA on triglyceride levels and ferroptosis sensitivity by first imaging lipid droplets with the neutral lipid stain BODIPY 493/503.
as §2

[4] = tested on: FSP1-WT or FSP1-KO HT1080 cells; assay: FIN-induced ferroptosis in FSP1-WT or FSP1-KO cells; assay type: cell-based, human; conditions: iFSP1 10 μM, CPBA 100 μM; for extent of sensitization to ferroptosis in FSP1-WT cells: FIN56, BSO or RSL3, 16 h; for additional effect in FSP1-deficient cells: FSP1-KO HT1080
Protocol: The following HT1080 fibrosarcoma cell lines were generated using CRISPR/Cas9 technology, as previously described (Doll et al., 2019): HT1080 GPX4-knockout (KO) cells (maintained in the presence of 100 μM α-tocopherol); HT1080 GPX4 knockout cells overexpressing FSP1 (GPX4-KO/FSP1-OE); GPX4-KO cells overexpressing FSP1 and re-expressing GPX4 (GPX4-KO/FSP1-OE/GPX4-OE); HT1080 FSP1-WT or FSP1-KO cells; and HT1080 FSP1-KO cells reconstituted with either FSP1-WT or FSP1-G2A. LOX-IMVI (BRAF V600E heterozygous human melanoma cells) expressing either the Venus mock vector or FSP1-Venus (Doll et al., 2019) were grown in RPMI-1640 supplemented with 10% FCS, 2 mM L-glutamine and Pen/Strep.
as §1
We next performed comparative experiments to compare the effect of CPBA with the effect of the small molecule FSP1 inihibitor iFSP1. To this end, we incubated FSP1-WT or FSP1-KO HT1080 cells with FIN56 (see FIG. 15), BSO (see FIG. 16) or RSL3 (see FIG. 17) to induce ferroptosis as described above. Lack of FSP1 expression in FSP1-KO cell lines was confirmed by Western Blot as described above (see FIG. 14).
Next, we compared the treatment of FSP1-WT and FSP1-KO cells with either iFSP1 or with CPBA (see FIGS. 15, 16 and 17).

O=C(Nc1ccccc1C(=O)O)c1ccc(Oc2ccc(C(=O)Nc3ccccc3C(=O)O)cc2)cc1 [CPBA, 2-[[4-[4-[(2-carboxyphenyl)carbamoyl]phenoxy]benzoyl]amino]-benzoic acid] was tested. Which “influence of lipid droplets on sensitization to FIN56-induced cell death” value [1] did it give?
The value was “the absence or presence of lipid droplets did not influence the CPBA-mediated sensitization of HT1080 cells to FIN56-induced cell death”.

And the “inhibition of human FSP1 activity” value [2]?
Its value is “inhibits human and murine FSP1 activity”.

And the lipid droplets [3]?
Its lipid droplets is “triggered the accumulation of lipid droplets in HT1080 cells”.

And the “extent of sensitization to ferroptosis in FSP1-WT cells” value [4]?
Its value is “comparable to the effect of FSP1-deficiency”.

What about the “additional effect in FSP1-deficient cells” value [4] of the same compound?
Its value is “no additional effect of iFSP1 or CPBA is observed in FSP1-deficient cells”.

What does the source list for Cc1ccc(-c2c(C#N)c(N)n3c(nc4ccccc43)c2C#N)cc1 [iFSP1, reference compound]?
inhibition of human FSP1 activity [2]: is an inhibitor of human FSP1; extent of sensitization to ferroptosis in FSP1-WT cells [4]: slightly smaller than the effect of CBPA in all conditions; additional effect in FSP1-deficient cells [4]: no additional effect of iFSP1 or CPBA is observed in FSP1-deficient cells
